Data published in publication PMC10924921, “Mi-2β promotes immune evasion in melanoma by activating EZH2 methylation” (Nature Communications, 2024).

What was measured:
[1] = system: Cxcl9 and Cxcl10 mRNA in B16F10 cells; test: RT-qPCR of Mi-2β target genes in treated cells; format: cell-based, mouse
Protocol: Z36-MP5 was chosen for further validation and experimental therapeutics in vivo. […] To investigate its cellular inhibitory activity, B16F10 cells were treated with Z36-MP5 at concentrations ranging from 5 to 100 µM, and the activation of Mi-2β target genes measured by RT-qPCR. […] In addition, the pharmacokinetic properties of Z36-MP5 in Sprague-Dawley rats with administration of intraperitoneal injection dose of 1.0 mg/kg. […] To exclude any effects on the host cells, we implanted Mi-2β-null melanoma cells into C57BL6 mice and then treated the mice with Z36-MP5 accompanied by anti-PD-1 therapy.
The total RNA was extracted with QIAGEN RNeasy kit […] for cDNA synthesis with SuperScript II Reverse Transcriptase (Invitrogen). In total, 40 ng cDNA was used for quantitative real-time PCR amplification by TaqMan Gene Expression Master Mix (Thermo Fisher Scientific). The relative transcript levels were normalized with GAPDH expression. The data were calculated with the comparative CT method. Primers for RT-qPCR assays are shown in Supplementary Data 3.

B16F10 cells = test: CCK-8 cell proliferation; format: cell-based, mouse; conditions: CCK-8, B16F10 cells
Protocol: To test whether Z36-MP5 affects cell proliferation, cells were seeded into 96-well plates at a density of 1 × 10^3 cells/100 μl per well. CCK-8 was used to detect changes in proliferation ability after 3 days of treatment with Z36-MP5 (25 μM). To test whether Mi-2β expression in T cells or treatment of T cells with Z36-MP5 affects the ability of T cells to kill tumor cells, Mi-2β in Pmel-1 T cells was manipulated or Pmel-1 cells were exposed to Z36-MP5 (25 μM) for 24 hrs. The number of cells was quantified. One thousand Pmel-1 T cells were then co cultured with 1000 tumor cells for 24 hrs, and the number of tumor cells was counted.
Supplementary Figure 8. In vitro assay for Mi-2β inhibitors. a The body weight changes of C57BL/6J mice treated with Z36-MP5 (30 mg/kg/day) for 2 weeks. Data are mean ± SEM (n=5). b H&E staining of tissues in C57BL/6J mice treated with or without Z36 -MP5 (30 mg/kg/day) for 2 weeks. […]
The growth of tumor grafts was measured. n = 5. g Mice bearing B16F10 cell s were treated with MS177 (100 mg/kg, 5 days) and then Z36 -MP5 (30 mg/kg/day) or vehicles, accompanied with anti -PD-1 antibody […]

Cn1c(=O)[nH]c2ccc(-c3cccc(C(=O)NC4CCn5ccnc5C4)c3)cc21 (stereo not drawn) [Z36-MP5]
expressions of Mi-2β target genes Cxcl9 and Cxcl10 ([1]; 5 μM to 100 μM): substantial increases | Mi-2β target gene expression (Cxcl9, Cxcl10 mRNA) ([1]; 25 µM, 24 h): induced Mi-2β target gene expression including Cxcl9 and Cxcl10 | proliferation of tumor cells (B16F10 cells): not significantly inhibited
